Test results reported in PubChem BioAssay (NCI).
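A five-concentration, 48-hour dose response in 96-well plates underlies each endpoint, interpolated linearly between surrounding concentrations. TGI denotes the concentration required for complete inhibition of growth.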

Key:
Assay in all cases: NCI tumour cell line growth inhibition, 48 h
A498 renal = test system: A498 renal
ACHN renal = test system: ACHN renal
DU-145 prostate = test system: DU-145 prostate
HCT-116 colon = test system: HCT-116 colon
HL-60(TB) leukemia = test system: HL-60(TB) leukemia
HOP-62 NSCLC = test system: HOP-62 NSCLC
HS 578T breast = test system: HS 578T breast
IGROV1 ovarian = test system: IGROV1 ovarian
KM12 colon = test system: KM12 colon
OVCAR-3 ovarian = test system: OVCAR-3 ovarian
OVCAR-8 ovarian = test system: OVCAR-8 ovarian
SF-295 CNS = test system: SF-295 CNS
SK-MEL-28 melanoma = test system: SK-MEL-28 melanoma
SNB-75 CNS = test system: SNB-75 CNS
SR leukemia = test system: SR leukemia
UO-31 renal = test system: UO-31 renal
MDA-MB-435 = test system: MDA-MB-435

SMILES	TGI (A498 renal) [µM]	TGI (ACHN renal) [µM]	TGI (DU-145 prostate) [µM]	TGI (HCT-116 colon) [µM]	TGI (HL-60(TB) leukemia) [µM]	TGI (HOP-62 NSCLC) [µM]	TGI (HS 578T breast) [µM]	TGI (IGROV1 ovarian) [µM]	TGI (KM12 colon) [µM]	TGI (OVCAR-3 ovarian) [µM]	TGI (OVCAR-8 ovarian) [µM]	TGI (SF-295 CNS) [µM]	TGI (SK-MEL-28 melanoma) [µM]	TGI (SNB-75 CNS) [µM]	TGI (SR leukemia) [µM]	TGI (UO-31 renal) [µM]	TGI (MDA-MB-435) [µM]
COc1ccccc1C1C2=C(COC2=O)OC(C)(C)Oc2cc3c(cc21)OCO3 (stereo unspecified)	24.7	> 94.1	> 100	> 36.1	7.8	> 65.4	> 100	> 87.1	11.4	13.3	> 100	> 45.6	72.1	8.42	> 100	> 100	
CC12CN(CC[N+](C)(C)C)CC1(C)C1CCC2O1 (stereo unspecified)	> 100	> 100	> 100	> 100		> 100	> 100	> 100	> 100	> 100	> 100	> 100	> 100	> 100	> 100	> 100	> 100
COC(=O)CCc1ccc2c(c1)CCC2		> 100	> 100	> 100	> 100	> 100	> 100	> 100	> 100	> 100	> 100	> 100	> 100	> 100	> 100	> 100	> 100
COc1ccc(C)c2c1N[C@](C)([C@]1(C)Nc3c(OC)ccc(C)c3C1=O)C2=O	> 100	> 100	> 100	> 100		> 100	> 100	> 100	> 100	> 100	> 100	> 100	> 100		> 100	> 100	> 100
COC(C)(C)C(O)C(O)C[C@H](C)C1CC=C2C1(C)CCC1[C@@]3(C)CCC(OC(C)=O)C(C)(C)C3CC(OC3OC(COC(C)=O)C(O)C(O)C3O)[C@@]21C (stereo partly specified)	8.68	> 10	> 10	> 10	5.54	> 10	> 10	8.04	> 10	9.79	> 10	> 10	> 10	> 10		2.07	> 10
COC(=O)c1cc(NC2OCC(OC(C)=O)C(OC(C)=O)C2OC(C)=O)nc(SC)c1C(=O)OC (stereo unspecified)		> 100	> 100	> 100	> 100	> 100	> 100	> 100	> 100	> 100	> 100	> 100	> 100	> 100	> 100	> 100	> 100
Cc1c(O)c(OC2OC(CO)C(O)C(O)C2O)cc2c1CC[C@@H]1C2(C)C(=O)C[C@]2(C)[C@@H]([C@@](C)(O)C(O)/C=C/C(C)(C)O)[C@H](O)C[C@@]12C (stereo partly specified)	> 100	> 100	> 100	> 100	> 100	> 100		> 100	> 100	> 100	> 100	> 100	> 100	> 100	> 100	> 100	> 100
CCCCCCCCCCCCCCCCOP(=O)(O)OP(=O)(O)OCC1OC(n2ccc(N)nc2=O)CC1O (stereo unspecified)	> 100	> 100		> 100	> 100	> 100	> 100	> 100	> 100	> 100	> 100	> 100	> 100	> 100		> 100	> 100
COC(=O)c1cc(C)ccc1/C=C1\Cc2cc(C)c(C)cc2C1=O	> 100	> 100	> 100	> 100	> 100	> 100	> 100	> 100	> 100	> 100	> 100	> 100	> 100	69.5	> 100	> 100	
Cn1c(=O)n(-c2c3ccccc3c(Cl)c3ccccc23)n(C(C)(C)C)c1=O	> 100	> 100	> 100	> 100	> 100	> 100	> 100	> 100	> 100	> 100	> 100	> 100	> 100	43.9		> 100	> 100
CCCSc1cc(Cl)c(C)cc1S(=O)(=O)n1cc[nH]c1=O	> 100	> 100	> 100	> 100		> 100	> 100	> 100	> 100	> 100	> 100	> 100	> 100	> 100	> 100	> 100	> 100
COc1ccc(C2Oc3c(cccc3OC)C=C2[N+](=O)[O-])cc1OC (stereo unspecified)		29.3	> 100	17.4	> 100	> 100	> 100	24.7	34	67.9		71.7	20.5	> 100	> 100	29.2	8.3
O=C(O)c1ccc(Nc2ccnc3cc(Cl)ccc23)cc1O	> 100	> 100	> 100	> 100	> 100	> 100	> 100	> 100	> 100	> 100	> 100	> 100	> 100	> 100		> 100	> 100
COC(=O)c1ccccc1C1CN=NC12Cc1c(C)cc(C)cc1C2=O (stereo unspecified)	> 100	> 100	> 100	> 100	> 100	> 100	> 100	> 100	> 100	> 100	> 100	> 100	> 100	> 100		> 100	> 100
